In ChEMBL document CHEMBL1146642, “5-Alkyl-2-[(aryl and alkyloxylcarbonylmethyl)thio]-6-(1-naphthylmethyl) pyrimidin-4(3H)-ones as an unique HIV reverse transcriptase inhibitors of S-DABO series” (Bioorg Med Chem Lett, 2004):

Tests used:
MT4 [1] = assay: Cytotoxic concentration that reduces the MT-4 cell viability by 50%; format: functional; conditions: Homo sapiens
MT4 [2] = assay: Concentration required to protect the cell against HIV-2 strain ROD viral cytopathogenicity by 50% in MT-4 cells; format: functional, cell-based, Human immunodeficiency virus 2; conditions: Homo sapiens
MT4 [3] = assay: Concentration required to protect the cell against HIV-2 strain ROD viral cytopathogenicity by 50% in MT-4 cells; NA denotes not active; format: functional, cell-based, Homo sapiens
MT4 [4] = assay: Concentration required to protect the cell against SO561945 viral cytopathogenicity by 50% in MT-4 cells; format: functional, cell-based; conditions: Homo sapiens

Structure (SMILES)	CC50 (MT4 [1]) [µM]	IC50 (MT4 [2]) [µM]	IC50 (MT4 [3])	IC50 (MT4 [4]) [µM]
COC(=O)CSc1nc(O)c(C)c(Cc2cccc3ccccc23)n1	≥ 296	≥ 296	–	–
CCc1c(O)nc(SCC(=O)c2ccc(F)cc2)nc1Cc1cccc2ccccc12	≥ 240	16.3	–	–
CCc1c(O)nc(SCC(=O)c2ccc(C)cc2)nc1Cc1cccc2ccccc12	6	≥ 1.25	–	–
CCOC(=O)CSc1nc(O)c(C(C)C)c(Cc2cccc3ccccc23)n1	175	≥ 41.1	–	–
Cc1c(O)nc(SCC(=O)c2ccc(F)cc2)nc1Cc1cccc2ccccc12	≥ 275	≥ 275	–	–
CCOC(=O)CSc1nc(O)c(C)c(Cc2cccc3ccccc23)n1	≥ 287	≥ 293	–	–
COc1ccc(C(=O)CSc2nc(O)c(C)c(Cc3cccc4ccccc34)n2)cc1	> 290	≥ 0.42	–	–
O=C1Nc2ccc(Cl)cc2[C@@](C#CC2CC2)(C(F)(F)F)O1 [EFAVIRENZ]	80	–	Not Active	–
Cc1ccnc2c1NC(=O)c1cccnc1N2C1CC1 [NEVIRAPINE]	> 200	–	Not Active	–
CCc1c(O)nc(SCC(=O)c2ccc(Cl)cc2)nc1Cc1cccc2ccccc12	56	≥ 0.26	–	–
Cc1ccc(C(=O)CSc2nc(O)c(C)c(Cc3cccc4ccccc34)n2)cc1	≥ 251	≥ 13.6	–	≥ 251
Cc1ccc(C(=O)CSc2nc(O)c(C(C)C)c(Cc3cccc4ccccc34)n2)cc1	225	≥ 225	–	–
Cc1ccc(C(=O)CSc2nc(O)c(C(C)C)c(Cc3cccc4ccccc34)n2)c(C)c1	27	4	–	–
CCc1c(O)nc(SCC(=O)c2ccc(OC)cc2)nc1Cc1cccc2ccccc12	178	≥ 18.9	–	–
CC(C)c1c(O)nc(SCC(=O)c2ccc(F)cc2)nc1Cc1cccc2ccccc12	186	≥ 32.2	–	–
O=c1[nH]cnc2c1ncn2[C@H]1CC[C@@H](CO)O1 [DIDANOSINE]	≥ 529	2.71	–	–
COC(=O)CSc1nc(O)c(C(C)C)c(Cc2cccc3ccccc23)n1	179	> 179	–	–
CCc1c(O)nc(SCC(=O)OC)nc1Cc1cccc2ccccc12	≥ 196	≥ 196	–	–
CC(=O)CSc1nc(O)c(C(C)C)c(Cc2cccc3ccccc23)n1	43	> 43.1	–	–
Cc1c(Sc2ccccc2)n(COCCO)c(=O)[nH]c1=O [HEPT]	405	–	Not Active	–
COc1ccc(C(=O)CSc2nc(Cc3cccc4ccccc34)c(C(C)C)c(=O)[nH]2)cc1	≥ 203	13.4	–	–
CC(=O)CSc1nc(O)c(C)c(Cc2cccc3ccccc23)n1	85	≥ 84.9	–	–
CC(C)c1c(O)nc(SCC(=O)c2ccccc2)nc1Cc1cccc2ccccc12	238	22	–	–
CC(C)c1c(O)nc(SCC(=O)c2ccc(Cl)cc2)nc1Cc1cccc2ccccc12	> 270	> 270	–	–
Cc1c(O)nc(SCC(=O)c2ccc(Cl)cc2)nc1Cc1cccc2ccccc12	≥ 198	19.8	–	–
